Test system: virus-specific CD8 T cells
Set-up: species or system mice
Conditions: mouse, in vivo

Nc1ncn([C@H]2C[C@H](O)[C@@H](CO)O2)c(=O)n1 [DAC, 5-aza-2′-deoxycytidine]
Ki67+ virus-specific CD8 T cells: significant increase | T cell expansion: did not observe an enhancement | expansion of virus-specific T cells in spleen, lungs and liver: enhanced expansion | quantity of gp33-specific CD8 T cells in the peripheral blood: striking increase

From patent publication US20200054660A1, “DNA M[…] FOR T-CELL IMMUNOTHERAPY” (priority 2016, published 2020)
